This is an account of results in ChEMBL document CHEMBL3351802, “Rupestonic acids B-G, NO inhibitory sesquiterpenoids from Artemisia rupestris” (Bioorg Med Chem Lett, 2014).

Each structure is given as a SMILES string.

The subject of data set [1] is BV-2. The experiment in a line: Inhibition of LPS-stimulated NO production in […] cells after 24 hrs by Griess assay. Format: functional, cell-based. Conditions: Mus musculus, BV-2, 24 h. In general terms: The Griess reaction detects nitrite, a stable product of nitric oxide.
A short description of data set [2]: Cytotoxicity against LPS-stimulated […] cells assessed as cell viability at 40 uM by MTT assay. Format: cell-based, BV-2. The conditions noted are these: read-out: Activity. For orientation: Tetrazolium assays rely on reduction of a dye to a coloured formazan, in cell work by metabolically active cells.

In turn, `C=C(C(=O)O)[C@@H]1CC[C@H](C)[C@@H]2CC[C@](C)(O)[C@@]2(O)C1` yielded an IC50 in data set [1] of 2.6 µM. In addition, the viability at 40 µM in data set [2] came out at 78.8%.

As for `C=C(C(=O)O)[C@@H]1CC[C@H](C)[C@H](CCC(C)=O)C(=O)C1`, the midpoint of inhibition in data set [1], the IC50, lay at 2.2 µM. Also, the viability at 40 µM in data set [2] is 76.6%.

`C=C(C(=O)O)[C@@H]1CC[C@H](C)[C@@]2(O)CC(=O)C(C)=C2C1` yielded an IC50 in data set [1] of 28.9 µM. Further, in data set [2], the viability at 40 µM was 83.4%.

As for `C=C(C(=O)O)[C@@H]1CC[C@H](C)C2=C(C1)[C@](C)(O)CC2=O`, inhibition in data set [1] was half-maximal at 24.7 µM (IC50). In data set [2], the viability at 40 µM is 77%.

For the compound `O=c1c(O)c(-c2ccc(O)c(O)c2)oc2cc(O)cc(O)c12` [QUERCETIN], the IC50 in data set [1] was determined as 4.3 µM. Besides, in data set [2], the viability at 40 µM worked out at 97%.

As to `CC1=C2C[C@H](C(=O)O)CC[C@H](C)[C@@H]2CC1=O`, in data set [1], the IC50 is 8.9 µM. Besides, in data set [2], the viability at 40 µM came out at 77.6%.

With `C=C(C(=O)O)[C@@H]1CC[C@H](C)[C@H]2C(=O)C=C(C)[C@]2(O)C1`, the IC50 in data set [1] came out at 20.4 µM. The viability at 40 µM in data set [2] is 76.1%.

Usually IC50 stands for the concentration needed to halve the response being measured. Higher therefore signals weaker potency.
